Experimental data published in the NIST ThermoML archive (doi:10.1016/j.tca.2006.02.029).

Experiment: excess molar enthalpy (molar enthalpy of mixing); xn = mol fraction of the nth substance listed
Conditions: 1065 K, 101 kPa, Liquid, Drop calorimetry

[Fe] [iron] + [Sb]
Conditions | excess molar enthalpy [kcal/mol]
x1 = 0.0023 | 0.0117
x1 = 0.0025 | 0.00933
x1 = 0.0049 | 0.0176
x1 = 0.0055 | 0.0233
x1 = 0.0075 | 0.0279
x1 = 0.008 | 0.0317
x1 = 0.0102 | 0.0359
x1 = 0.0114 | 0.0427
x1 = 0.0129 | 0.0455
x1 = 0.0135 | 0.0475
x1 = 0.0144 | 0.0535
x1 = 0.0148 | 0.0479
x1 = 0.0157 | 0.0538
x1 = 0.0187 | 0.0674
x1 = 0.0188 | 0.0624
x1 = 0.0232 | 0.079
x1 = 0.0271 | 0.0916
x1 = 0.029 | 0.0888
x1 = 0.0292 | 0.0913
x1 = 0.0316 | 0.105
x1 = 0.0359 | 0.118
x1 = 0.0407 | 0.131
x1 = 0.0442 | 0.131
x1 = 0.0445 | 0.128
x1 = 0.0455 | 0.145
x1 = 0.0591 | 0.165
x1 = 0.0609 | 0.168
x1 = 0.0762 | 0.201
x1 = 0.0765 | 0.204
x1 = 0.0942 | 0.229
x1 = 0.096 | 0.243
x1 = 0.1139 | 0.259
x1 = 0.1167 | 0.283
x1 = 0.1336 | 0.313
x1 = 0.1353 | 0.299
